Laboratory results taken from the supplement of paper PMC11061612.

How the values were obtained:
Test in all cases: combination Emax (second highest fraction inhibited in the dose matrix, 72 h); higher = more inhibition; extreme values may be limits of the assay
[1] = tested on: 42-MG-BA (Glioblastoma)
Outline: (§1)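 Bliss excess equals the observed combination effect minus the expected value EA + EB − EA·EB, where EA and EB are the effects of each agent alone. Combination Emax is the second-highest inhibition within the matrix. Inhibition was scaled from CellTiter-Glo 2.0 luminescence, with 0 set by vehicle wells and 1 by blank wells, after 72 hours of two-drug dosing of cells plated in 1536-well plates.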

[2] = tested on: AGS (Gastric Carcinoma)
Outline: as §1

[3] = tested on: DEL (T-Cell Non-Hodgkin's Lymphoma)
Outline: as §1

[4] = tested on: HO-1-N-1 (Oral Cavity Carcinoma)
Outline: as §1

[5] = tested on: HOS (Osteosarcoma)
Outline: as §1

[6] = tested on: KURAMOCHI (Ovarian Carcinoma)
Outline: as §1

[7] = tested on: KYSE-520 (Esophageal Squamous Cell Carcinoma)
Outline: as §1

[8] = tested on: LU-135 (Small Cell Lung Carcinoma)
Outline: as §1

[9] = tested on: MDA-MB-361 (Breast Carcinoma)
Outline: as §1

[10] = tested on: MFE-296 (Endometrial Carcinoma)
Outline: as §1

[11] = tested on: NB10 (Neuroblastoma)
Outline: as §1

[12] = tested on: NOS-1 (Osteosarcoma)
Outline: as §1

[13] = tested on: OVCA420 (Ovarian Carcinoma)
Outline: as §1

[14] = tested on: RO82-W-1 (Thyroid Gland Carcinoma)
Outline: as §1

[15] = tested on: Ramos-2G6-4C10 (Burkitt's Lymphoma)
Outline: as §1

[16] = tested on: SNU-5 (Gastric Carcinoma)
Outline: as §1

[17] = tested on: T98G (Glioblastoma)
Outline: as §1

[18] = tested on: TCCSUP (Bladder Carcinoma)
Outline: as §1

[19] = tested on: TE-15 (Esophageal Squamous Cell Carcinoma)
Outline: as §1

[20] = tested on: TE-9 (Esophageal Squamous Cell Carcinoma)
Outline: as §1

| Structure (SMILES) | combination Emax [1] | combination Emax [2] | combination Emax [3] | combination Emax [4] | combination Emax [5] | combination Emax [6] | combination Emax [7] | combination Emax [8] | combination Emax [9] | combination Emax [10] | combination Emax [11] | combination Emax [12] | combination Emax [13] | combination Emax [14] | combination Emax [15] | combination Emax [16] | combination Emax [17] | combination Emax [18] | combination Emax [19] | combination Emax [20] |
| --- | --- | --- | --- | --- | --- | --- | --- | --- | --- | --- | --- | --- | --- | --- | --- | --- | --- | --- | --- | --- |
| NC1(C(=O)N[C@@H](CCO)c2ccc(Cl)cc2)CCN(c2ncnc3[nH]ccc23)CC1 [Capivasertib] + CC(C)n1c(=O)n(C)c2cnc3cc(F)c(-c4ccc(OCCCN5CCCCC5)nc4)cc3c21 [AZD1390] (first compound max 10 µM, 7x7, partner max 0.3 µM) | 0.686 | 0.444 | 0.44 | 0.435 | 0.41 | 0.294 | 0.467 | 0.267 | 0.44 | 0.488 | 0.221 | 0.322 | 0.21 | 0.244 | 0.447 | 0.43 | 0.449 | 0.321 | 0.387 | 0.17 |
| NC1(C(=O)N[C@@H](CCO)c2ccc(Cl)cc2)CCN(c2ncnc3[nH]ccc23)CC1 [Capivasertib] + CCN(CCO)CCCOc1ccc2c(Nc3cc(CC(=O)Nc4cccc(F)c4)[nH]n3)ncnc2c1 [AZD2811] (first compound max 10 µM, 7x7, partner max 1 µM) | 0.782 | 0.706 | 0.859 | 0.833 | 0.408 | 0.332 | 0.542 | 0.932 | 0.718 | 0.549 | 0.452 | 0.355 | 0.253 | 0.215 | 0.807 | 0.499 | 0.437 | 0.389 | 0.449 | 0.267 |
| NC1(C(=O)N[C@@H](CCO)c2ccc(Cl)cc2)CCN(c2ncnc3[nH]ccc23)CC1 [Capivasertib] + COc1nnc2ccc(N3CCC(c4ccc(OCCN5CCN(C)C(=O)[C@H]5C)cc4)CC3)nn12 [AZD5153] (first compound max 10 µM, 7x7, partner max 1 µM) | 0.813 | 0.944 | 0.893 | 0.887 | 0.632 | 0.776 | 0.668 | 0.969 | 0.718 | 0.694 | 0.527 | 0.806 | 0.762 | 0.362 | 0.997 | 0.564 | 0.699 | 0.35 | 0.693 | 0.354 |
| NC1(C(=O)N[C@@H](CCO)c2ccc(Cl)cc2)CCN(c2ncnc3[nH]ccc23)CC1 [Capivasertib] + C[C@@H]1COCCN1C2=NC(=NC(=C2)C3(CC3)[S@](=N)(=O)C)C4=C5C=CNC5=NC=C4 [AZD6738] (first compound max 10 µM, 7x7, partner max 10 µM) | 0.775 | 0.837 | 1 | 0.869 | 0.844 | 0.535 | 0.678 | 0.793 | 0.78 | 0.641 | 0.811 | 0.68 | 0.516 | 0.215 | 0.922 | 0.919 | 0.867 | 0.685 | 0.879 | 0.232 |
| NC1(C(=O)N[C@@H](CCO)c2ccc(Cl)cc2)CCN(c2ncnc3[nH]ccc23)CC1 [Capivasertib] + Cn1cnc2c(F)c(Nc3ccc(Br)cc3Cl)c(C(=O)NOCCO)cc21 [Selumetinib] (first compound max 10 µM, 7x7, partner max 10 µM) | 0.737 | 0.953 | 0.578 | 0.848 | 0.491 | 0.444 | 0.583 | 0.352 | 0.493 | 0.618 | 0.428 | 0.388 | 0.651 | 0.277 | 0.435 | 0.756 | 0.49 | 0.373 | 0.633 | 0.398 |
| Cc1nc(Nc2ncc(C(=O)Nc3c(C)cccc3Cl)s2)cc(N2CCN(CCO)CC2)n1 [Dasatinib] + CC(=O)Nc1cccc(-n2c(=O)n(C3CC3)c(=O)c3c(Nc4ccc(I)cc4F)n(C)c(=O)c(C)c32)c1 [Trametinib] (first compound max 2 µM, 7x7, partner max 1 µM) | 0.971 | 1 | 0.433 | 0.939 | 0.397 | 0.937 | 0.784 | 0.0891 | 0.229 | 0.224 | 0.658 | 0.921 | 0.903 | 0.436 | 0.238 | 0.654 | 0.744 | 0.266 | 0.782 | 0.271 |
| COc1cccc2c1C(=O)c1c(O)c3c(c(O)c1C2=O)C[C@@](O)(C(=O)CO)C[C@@H]3O[C@H]1C[C@H](N)[C@H](O)[C@H](C)O1 [Doxorubicin] + Cc1cc2ncnn2cc1Nc1ncc2c(n1)n(C1CCOCC1)c(=O)n2C [AZD7648] (first compound max 1 µM, 7x7, partner max 10 µM) | 0.925 | 0.986 | 1 | 0.979 | 0.972 | 0.546 | 0.295 | 0.817 | 0.537 | 0.295 | 0.863 | 0.369 | 0.224 | 0.628 | 0.951 | 0.823 | 0.597 | 0.665 | 0.721 | 0.148 |
| COc1cc2ncnc(Nc3ccc(F)c(Cl)c3)c2cc1OCCCN1CCOCC1 [Gefitinib] + CC(C)n1c(=O)n(C)c2cnc3cc(F)c(-c4ccc(OCCCN5CCCCC5)nc4)cc3c21 [AZD1390] (first compound max 10 µM, 7x7, partner max 0.3 µM) | 0.32 | 0.133 | 0.187 | 0.568 | 0.0904 | 0.128 | 0.556 | 0.129 | 0.207 | 0.0821 | 0.0716 | 0.714 | 0.646 | 0.164 | 0.148 | 0.178 | 0.12 | 0.114 | 0.762 | 0.0944 |
| CS(=O)(=O)CCNCc1ccc(-c2ccc3ncnc(Nc4ccc(OCc5cccc(F)c5)c(Cl)c4)c3c2)o1 [Lapatinib] + C[C@@H](Oc1cc(-c2cnn(C3CCNCC3)c2)cnc1N)c1c(Cl)ccc(F)c1Cl [Crizotinib] (first compound max 10 µM, 7x7, partner max 10 µM) | 0.767 | 0.976 | 1 | 0.979 | 0.408 | 0.721 | 0.945 | 0.94 | 0.859 | 0.224 | 0.796 | 0.985 | 0.964 | 0.203 | 0.898 | 0.927 | 0.949 | 0.508 | 0.906 | 0.552 |
| CC(=O)c1c(C)c2cnc(Nc3ccc(N4CCNCC4)cn3)nc2n(C2CCCC2)c1=O [Palbociclib] + CC1(C)CCC(CN2CCN(c3ccc(C(=O)NS(=O)(=O)c4ccc(NCC5CCOCC5)c([N+](=O)[O-])c4)c(Oc4cnc5[nH]ccc5c4)c3)CC2)=C(c2ccc(Cl)cc2)C1 [Venetoclax] (first compound max 10 µM, 7x7, partner max 1 µM) | 0.27 | 0.356 | 0.874 | 0.453 | 0.258 | 0.0917 | 0.114 | 0.445 | 0.163 | 0.203 | 0.293 | 0.693 | 0.0625 | 0.174 | 0.355 | 0.336 | 0.355 | 0.152 | 0.343 | 0.114 |
| CC(=O)c1c(C)c2cnc(Nc3ccc(N4CCNCC4)cn3)nc2n(C2CCCC2)c1=O [Palbociclib] + Cc1c2c(nn1C)CSCc1cc(n(C)n1)CSc1cc(c3ccccc3c1)OCCCc1c(C(=O)O)n(C)c3c-2c(Cl)ccc13 [AZD5991] (first compound max 10 µM, 7x7, partner max 1 µM) | 0.391 | 0.445 | 1 | 0.597 | 0.404 | 0.358 | 0.462 | 0.388 | 0.586 | 0.287 | 0.369 | 0.925 | 0.265 | 0.189 | 0.986 | 0.347 | 0.4 | 0.173 | 0.435 | 0.14 |
| CC(=O)c1c(C)c2cnc(Nc3ccc(N4CCNCC4)cn3)nc2n(C2CCCC2)c1=O [Palbociclib] + Cn1cnc2c(F)c(Nc3ccc(Br)cc3Cl)c(C(=O)NOCCO)cc21 [Selumetinib] (first compound max 10 µM, 7x7, partner max 10 µM) | 0.232 | 0.906 | 0.92 | 0.745 | 0.362 | 0.227 | 0.457 | 0.352 | 0.154 | 0.105 | 0.579 | 0.826 | 0.51 | 0.178 | 0.336 | 0.649 | 0.374 | 0.187 | 0.657 | 0.201 |
| COc1cccc(OCCCN)c1-c1cc(Nc2cnc(C#N)cn2)n[nH]1 [Prexasertib] + C=CCn1c(=O)c2cnc(Nc3ccc(N4CCN(C)CC4)cc3)nc2n1-c1cccc(C(C)(C)O)n1 [AZD1775] (first compound max 1 µM, partner max 1 µM) | 0.941 | 0.901 | 1 | 0.985 | 0.97 | 0.773 | 0.735 | 0.655 | 0.926 | 0.644 | 0.953 | 0.432 | 0.726 | 0.553 | 1 | 0.969 | 0.917 | 0.748 | 0.866 | 0.86 |
